The results in this text go back to PMC5435539 (Journal of applied toxicology : JAT, 2017).

The test system of data set [1] is CCD18 Co normal colon cells. The data set is described as follows: Cell viability assay. It counts as cell-based. The following applies: for IC50 CCD18 Co: 24 h exposure, 1 nM-100 μM, MTS or Alamar Blue, mean ±SEM.
In data set [2] the test system is HT29 colon carcinoma cells. The data set is described as follows: Cell viability assay. It counts as cell-based. The following applies: for IC50 HT29: 24 h exposure, 1 nM-100 μM, MTS or Alamar Blue, mean ±SEM; for IC50: Homo sapiens, HT-29, 24 h, read-out: IC50 HT29.
Data set [3] has as its system MCF-10A breast epithelial cells. In words: Cell viability assay. It counts as cell-based, human. The following applies: for IC50 MCF-10A: 24 h exposure, 1 nM-100 μM, MTS or Alamar Blue, mean ±SEM; for IC50: Homo sapiens, MCF-10A, 24 h, read-out: IC50 MCF-10A. Background: The colour change of resazurin is a common sign of viable cells or microbes.
The subject of data set [4] is MCF-7 cells. In words: Alamar Blue cell viability assay, 24 h. It is filed as cell-based. The following applies: read-out: IC50 MCF-7 (Alamar Blue), 24 h treatment.
Data set [5] relates to MCF-7 breast cancer cells. The data set is described as follows: Alamar Blue cell viability assay, 72 h. It is filed as cell-based. Conditions: read-out: IC50 MCF-7 cell viability, 72 h.
The test system of data set [6] is MCF-7 cells. In words: Annexin V-7AAD apoptosis assay. It is filed as cell-based. The following applies: 1 μM, 24 h, AnnexinV-7AAD.
Data set [7] addresses T1, human CYP1A1 (Homo sapiens, UniProt P04798).
T1 sequence (P04798 1-512): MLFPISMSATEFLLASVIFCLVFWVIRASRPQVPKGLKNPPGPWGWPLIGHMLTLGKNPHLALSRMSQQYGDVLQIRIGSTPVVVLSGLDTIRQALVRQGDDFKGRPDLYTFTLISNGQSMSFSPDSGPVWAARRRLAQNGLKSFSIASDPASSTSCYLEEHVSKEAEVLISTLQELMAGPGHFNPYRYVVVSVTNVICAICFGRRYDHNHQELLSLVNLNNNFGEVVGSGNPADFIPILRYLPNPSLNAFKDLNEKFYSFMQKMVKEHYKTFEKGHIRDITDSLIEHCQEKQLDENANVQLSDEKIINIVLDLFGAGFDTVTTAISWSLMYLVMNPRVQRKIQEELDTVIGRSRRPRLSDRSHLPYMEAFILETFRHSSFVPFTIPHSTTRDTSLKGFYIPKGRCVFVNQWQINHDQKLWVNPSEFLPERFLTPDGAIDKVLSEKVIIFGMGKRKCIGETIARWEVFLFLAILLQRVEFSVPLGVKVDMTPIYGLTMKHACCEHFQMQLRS
The data set is described as follows: Fluorometric CYP inhibition assay. It counts as biochemical.

Data set [8] has as its target T2, human CYP1B1 (Homo sapiens, UniProt Q16678).
T2 sequence (Q16678 1-543): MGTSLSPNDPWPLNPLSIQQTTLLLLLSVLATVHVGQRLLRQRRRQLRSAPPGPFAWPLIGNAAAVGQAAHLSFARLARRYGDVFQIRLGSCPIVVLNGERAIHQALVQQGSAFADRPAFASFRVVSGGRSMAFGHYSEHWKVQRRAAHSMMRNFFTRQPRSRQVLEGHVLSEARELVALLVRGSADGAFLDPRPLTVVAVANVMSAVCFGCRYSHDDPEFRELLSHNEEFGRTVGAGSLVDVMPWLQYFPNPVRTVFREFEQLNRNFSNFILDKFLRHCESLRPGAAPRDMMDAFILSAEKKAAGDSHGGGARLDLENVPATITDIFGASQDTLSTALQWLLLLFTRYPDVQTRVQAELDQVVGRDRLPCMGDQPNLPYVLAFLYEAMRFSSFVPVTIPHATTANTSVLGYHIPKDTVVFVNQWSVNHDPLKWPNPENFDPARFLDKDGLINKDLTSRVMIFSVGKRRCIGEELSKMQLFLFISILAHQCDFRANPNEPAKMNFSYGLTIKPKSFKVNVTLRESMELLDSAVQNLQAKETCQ
In words: Fluorometric CYP inhibition assay. It counts as biochemical. Conditions: recombinant human CYP1B1.

Data set [9] deals with human CYP2C19 (Homo sapiens, UniProt P33261). The data set is described as follows: Fluorometric CYP inhibition assay. Conditions: read-out: IC50 CYP2C19 activity; recombinant human CYP2C19, CEC 25 μM. It is filed as biochemical.
human CYP2C19, sequence (P33261 whole entry): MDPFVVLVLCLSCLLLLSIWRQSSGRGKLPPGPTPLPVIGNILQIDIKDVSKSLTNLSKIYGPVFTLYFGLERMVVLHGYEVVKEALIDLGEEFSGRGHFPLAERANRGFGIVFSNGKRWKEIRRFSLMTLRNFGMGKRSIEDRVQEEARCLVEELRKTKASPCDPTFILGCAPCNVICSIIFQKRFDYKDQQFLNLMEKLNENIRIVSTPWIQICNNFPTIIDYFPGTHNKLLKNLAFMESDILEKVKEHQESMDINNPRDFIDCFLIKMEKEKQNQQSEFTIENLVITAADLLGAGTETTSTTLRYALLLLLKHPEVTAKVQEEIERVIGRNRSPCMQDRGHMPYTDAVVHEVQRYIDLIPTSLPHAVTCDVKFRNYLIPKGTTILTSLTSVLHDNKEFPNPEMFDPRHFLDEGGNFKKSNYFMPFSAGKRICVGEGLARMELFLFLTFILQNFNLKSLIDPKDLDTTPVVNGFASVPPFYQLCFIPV
Data set [10] has as its target human CYP3A4 (Homo sapiens, UniProt P08684). The data set is described as follows: Fluorometric CYP inhibition assay. It is filed as biochemical. The following applies: read-out: IC50 CYP3A4 activity; recombinant human CYP3A4, BFC 50 μM.
The subject of data set [11] is CYP1A1 mRNA. The data set is described as follows: Real-time quantitative RT-PCR, B[a]P-induced gene expression in MCF-7 cells. It counts as cell-based. The following applies: Gg 10-100 nM with B[a]P, 24 h.
Data set [12] deals with CYP1A2 mRNA. The data set is described as above. It counts as cell-based. The following applies: Gg 10-100 nM with B[a]P, 24 h.
The subject of data set [13] is MCF-10A breast epithelial cells. In words: Reactive oxygen species. It counts as cell-based, human. Conditions: 2 h, MCF-10A cells.
Data set [14] relates to CYP1 enzymes mRNA. The data set is described as follows: Endogenous CYP1 mRNA expression in breast cancer cells. It is filed as cell-based. The following applies: Gg alone, data not shown.
The test system of data set [15] is CYP1A1 protein expression. In words: B[a]P-induced CYP1A1 protein expression. It is filed as cell-based. Conditions: data not shown.

A word on the IC50: it is the concentration at which inhibition is half-maximal. As a reminder, the Ki is the equilibrium dissociation constant of an inhibitor or competing ligand from its target.

Like-named read-outs stand apart in the source and are kept apart here.

human CYP3A4, sequence (P08684 whole entry): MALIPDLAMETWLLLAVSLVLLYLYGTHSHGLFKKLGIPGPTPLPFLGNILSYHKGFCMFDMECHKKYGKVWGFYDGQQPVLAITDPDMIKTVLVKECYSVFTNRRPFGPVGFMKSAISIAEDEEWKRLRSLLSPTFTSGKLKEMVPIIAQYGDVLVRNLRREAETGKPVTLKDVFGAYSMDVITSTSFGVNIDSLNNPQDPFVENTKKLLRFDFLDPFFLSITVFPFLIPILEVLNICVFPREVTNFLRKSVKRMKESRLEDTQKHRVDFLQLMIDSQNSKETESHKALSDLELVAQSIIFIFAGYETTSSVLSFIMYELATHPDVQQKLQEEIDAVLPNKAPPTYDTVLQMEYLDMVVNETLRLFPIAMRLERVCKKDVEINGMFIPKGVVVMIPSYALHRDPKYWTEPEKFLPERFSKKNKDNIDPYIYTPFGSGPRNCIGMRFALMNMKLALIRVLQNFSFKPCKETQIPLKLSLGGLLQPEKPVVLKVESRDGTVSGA

For the compound `CC1=CC(=O)[C@@H](O)[C@]2(C)[C@H]3[C@]4(O)OC[C@]35[C@H]([C@@H](C)[C@H]4O)[C@@H](O)C(=O)O[C@@H]5C[C@@H]12` [(−)-Glaucarubolone, (−)-glaucarubolone], in [1], the “IC50 CCD18 Co” value is “NI (No inhibition (<10% inhibition at 60 μM))”. Also, the “IC50 HT29” value in [2] was “NI (No inhibition (<10% inhibition at 60 μM))”. In addition, the “IC50 MCF-10A” value in data set [3] is reported as “NI (No inhibition (<10% inhibition at 60 μM))”.

glaucarubulone glucoside [Gg]: the “IC50 HT29” value in [2] is reported as “NI (No inhibition (<10% inhibition at 60 μM))”. Moreover, the “IC50 MCF-10A” value in data set [3] was “NI (No inhibition (<10% inhibition at 60 μM))”. In addition, the IC50 amounted to 3.52 ± 0.918 µM in data set [4]; 0.121 µM in data set [5] (72 h exposure, Alamar Blue); 6.93 ± 0.31 µM in data set [7] (read-out: IC50 CYP1A1 activity, recombinant human CYP1A1, CEC 0.5 μM); 19.4 ± 1.11 µM in data set [9]; 1.31 ± 0.49 µM in [10]. The compound also displayed an early apoptosis in [6] of 26.5 ± 9.5%. Besides, in [7] (Eadie-Hofstee plots), the “mode of inhibition of CYP1A1” value is “non-competitive”. Also, the Ki in data set [7] (read-out: Ki CYP1A1, Eadie-Hofstee plots, non-competitive inhibition) worked out at 7.1 ± 1.44 µM. The “inhibition of CYP1B1 activity” value in [8] is given as “moderately inhibited”. Further, in [11], the “effect on B[a]P-induced CYP1A1 mRNA expression” value was “inhibited B[a]P-induced CYP1A1 mRNA expression in a dose-dependent fashion”. The “effect on B[a]P-induced CYP1A2 mRNA expression” value in [12] is listed as “sustained inhibition”. The “effect on 1,6-BPQ-mediated increases in ROS production” value in data set [13] (Gg 1 μM with 1,6-BPQ 2 μM) is on record as “effectively suppressed”. In [14], the “effect on endogenous mRNA expression of CYP1 enzymes” value is “did not appreciably affect”. In addition, in data set [15], the “effect on B[a]P-mediated induced CYP1A1 protein expression” value was “could not appreciably suppress”.

As to `CC(=O)O[C@H]1C(=O)O[C@@H]2C[C@H]3C(C)=CC(=O)[C@@H](O)[C@]3(C)[C@H]3[C@]4(O)OC[C@]32[C@@H]1[C@@H](C)[C@H]4O` [(−)-Holacanthone, (−)-holacanthone], the half-inhibitory concentration (IC50) in data set [1] (Homo sapiens, CCD-18Co, 24 h, read-out: IC50 CCD18 Co) was below 5 µM; in data set [2] it was 9.91 ± 0.52 µM; in data set [3], 0.3 µM.

On to `O=C1C=Cc2ccc3c4c(ccc1c24)-c1ccccc1C3=O` [1,6-BPQ, benzo[a]pyrene-1,6-quinone, reference compound], for which, in [13] (1,6-BPQ 2 μM), the “increase in ROS levels” value worked out at 2 fold.

Turning to `CCC1(c2ccccc2)C(=O)NC(=O)N(Cc2ccccc2)C1=O` (single isomer, unassigned; (-)) [NBPB, (−)-N-3-benzyl-phenobarbital, reference compound], in data set [9], the half-maximal inhibitory concentration (IC50) came to 0.3 ± 0.01 µM.

Regarding `COc1cccc2c1C(=O)c1c(O)c3c(c(O)c1C2=O)C[C@@](O)(C(=O)CO)C[C@@H]3O[C@H]1C[C@H](N)[C@H](O)[C@H](C)O1` [Doxorubicin, reference compound], the half-maximal inhibitory concentration (IC50) in data set [3] was determined as 30.2 ± 1.29 µM; in data set [5] (Homo sapiens, MCF7, 72 h), 0.1 µM.

Take `COc1cc2ccc(=O)oc2cc1O` [Scopoletin, scopoletin]: the “IC50 CCD18 Co” value in data set [1] is on record as “NI (No inhibition (<10% inhibition at 60 μM))”. Moreover, in [1] (at 60 μM, 24 h), the “inhibition of viability of CCD18Co normal colon cells” value is given as below 10%. Also, in data set [2], the IC50 was 19.3 ± 0.348 µM. Moreover, the “IC50 MCF-10A” value in [3] is “NI (No inhibition (<10% inhibition at 60 μM))”.

With `O=c1[nH]cc(F)c(=O)[nH]1` [5-Fluorouracil, reference compound], in data set [3], the “IC50 MCF-10A” value is “NI (No inhibition (<10% inhibition at 60 μM))”. Besides, in [5] (Homo sapiens, MCF7, 72 h), the half-inhibitory concentration (IC50) was above 10 µM.

`CC/C(=C(\c1ccc(O)cc1)c1ccc(OCCN(C)C)cc1)c1ccccc1` [4OH-Tam, 4-hydroxy-tamoxifen]: the half-inhibitory concentration (IC50) in data set [5] (Homo sapiens, MCF7, 72 h) was determined as 2.6 µM.
